Measured values: US20060287319A1, “Anti-viral compositions comprising heterocyclic substituted phenyl furans and related compounds” (priority 2005, published 2006)
Like-named read-outs stand apart in the source and are kept apart here.

Legend:
[1] = test system: HIV-1 IIIB; test: HIV-1-mediated cytopathic effect (CPE); assay type: cell-based; details: read-out: EC50 (μM) (M ± SD) for inhibition of CPE
Source text: We thus purchased these compounds and tested their inhibitory activity on: 1) HIV-1 replication (p24 production); 2) HIV-1-mediated cytopathic effect (CPE); and 3) HIV-1 Env-induced cell-cell fusion; and their cytotoxicity to MT-2 cells.

[2] = test system: MT-2 cells
Protocol: Detection of in vitro cytotoxicity. The in vitro cytotoxicity of compounds for MT-2 cells was measured by a colorimetric method using XTT tetrazolium dye as previously described (21). Briefly, 100 μl of a compound at a graded concentration was added to equal volume of cells (5×10^5/ml) in a well of 96-well plates. After incubation at 37° C. for 4 days, XTT (1 mg/ml; […]; PolySciences, Inc., Warrington, Pa.) was added. Four hours later, the soluble intracellular formazan was quantitated colorimetrically at 450 nm with a reference at 570 nm.

[3] = test system: HIV-1 IIIB; details: for EC50: read-out: EC50 (μM) (M ± SD) for inhibition of p24, HIV-1 IIIB, MT-2 cells
Protocol: Assessment of anti-HIV-1 infectivity. The inhibitory activity of compounds on infection by laboratory-adapted HIV-1 strains was determined as previously described (34). […] For the time-of-addition assay, compounds were added at various time post-infection. Then the culture supernatants were removed and fresh media were added. On the fourth day post-infection, 100 μl of culture supernatants were collected from each well, mixed with equal volumes of 5% Triton X-100 and assayed for p24 antigen, which was quantitated by ELISA (23). Briefly, the wells of polystyrene plates (Immulon 1B, Dynex Technology, Chantilly, Va.) were coated with HIV immunoglobulin (HIVIG), which was prepared from plasma of HIV-seropositive donors with high neutralizing titers against HIV-1IIIB as previously described (36) in 0.085 M carbonate-bicarbonate buffer (pH 9.6) at 4° C. overnight, followed by washes with PBS-T buffer (0.01M PBS containing 0.05% Tween-20) and blocking with PBS containing 1% dry fat-free milk (Bio-Rad Inc., Hercules, Calif.). Virus lysates were added to the wells and incubated at 37° C. for 1 h. […] Reactions were terminated by addition of 1N H2SO4. […] Recombinant protein p24 (US Biological, Swampscott, Mass.) was included for establishing standard dose response curve.

[4] = test system: HIV-1IIIB infected H9 cells (H9/HIV-1IIIB) and MT-2 cells; test: HIV-1 mediated cell-cell fusion (dye transfer assay); assay type: cell-based; details: H9/HIV-1IIIB with MT-2 cells; read-out: EC50 (μM) (M ± SD) for inhibition of Cell fusion
Protocol: Inhibition of cell-cell fusion. A dye transfer assay was used for detection of HIV-1 mediated cell fusion as previously described (11,25,26). H9/HIV-1IIIB cells were labeled with a fluorescent reagent, Calcein-AM (Molecular Probes, Inc., Eugene, Oreg.) and then incubated with MT-2 cells (ratio=1:5) in 96-well plates at 37° C. for 2 hrs in the presence or absence of compounds tested. The fused and unfused Cacein-labeled HIV-1-infected cells were counted under an inverted fluorescence microscope (Zeiss, Germany) with an eyepiece micrometer disc. The percentage of inhibition of cell fusion and the IC50 values were calculated as previously described (11).

[5] = read-out: Cytotoxicity CC50 (μM) (M ± SD), MT-2 cells

| SMILES | EC50 [1] | CC50 [2] | EC50 [3] | EC50 [4] | SI (CC50/EC50) [3] | CC50 [2, 5] | SI (CC50/EC50) ([3]; selectivity index) |
| --- | --- | --- | --- | --- | --- | --- | --- |
| C#CCN1C(=O)S/C(=C\c2ccc(-c3cc(C(=O)O)ccc3C)o2)C1=O [NB205] | > 100 µM | > 435 µM | > 100 µM | > 100 µM | – | – | – |
| O=C(O)c1cccc(-c2ccc(/C=C3\SC(=S)N(c4ccc(F)cc4)C3=O)o2)c1 [NB229] | > 100 µM | > 376 µM | > 100 µM | > 100 µM | – | – | – |
| C#CCN1C(=O)S/C(=C\c2ccc(-c3ccc(Cl)c(C(=O)O)c3)o2)C1=O [NB200] | > 100 µM | > 413 µM | > 100 µM | > 100 µM | – | – | – |
| C#CCN1C(=O)S/C(=C\c2ccc(-c3cccc(C(=O)O)c3)o2)C1=O [NB216] | > 100 µM | 55.3 ± 10 µM | > 100 µM | > 100 µM | – | – | – |
| CCN1C(=O)/C(=C/c2ccc(-c3ccc(Cl)c(C(=O)O)c3)o2)SC1=S [NB214] | 3.53 ± 0.738 µM | 44.8 ± 1.25 µM | 0.943 ± 0.144 µM | 2.23 ± 0.082 µM | 47.5 | – | – |
| O=C(O)c1cc(-c2ccc(/C=C3\SC(=S)N(c4ccc([N+](=O)[O-])cc4)C3=O)o2)ccc1Cl [NB222] | > 100 µM | – | > 100 µM | > 100 µM | – | > 328 µM | – |
| Cc1cccc(NC(=O)CN2C(=O)S/C(=C\c3ccc(-c4cc(C(=O)O)ccc4Cl)o3)C2=O)c1 [NB198] | > 100 µM | > 322 µM | > 100 µM | > 100 µM | – | – | – |
| O=C(O)c1cc(-c2ccc(/C=C3\SC(=O)N(CC(=O)N4CCOCC4)C3=O)o2)ccc1Cl [NB202] | > 100 µM | – | > 100 µM | > 100 µM | – | > 336 µM | – |
| Cc1ccc(N2C(=O)/C(=C/c3ccc(-c4cccc(C(=O)O)c4)o3)SC2=S)c(C)c1 [NB146] | 1.77 ± 0.368 µM | – | 0.299 ± 0.046 µM | 1.08 µM | – | 33.8 ± 4.44 µM | 103.15 |
| COC(=O)C(C)N1C(=O)S/C(=C\c2ccc(-c3cc(C(=O)O)ccc3C)o2)C1=O (stereo not shown) [NB237] | > 100 µM | 67.7 ± 15 µM | > 100 µM | > 100 µM | – | – | – |
| O=C(O)c1cccc(-c2ccc(/C=C3\SC(=O)N(c4ccccc4)C3=O)o2)c1 [NB158] | > 100 µM | – | > 100 µM | > 100 µM | – | > 102 µM | – |
| Cc1cccc(NC(=O)CN2C(=O)S/C(=C\c3ccc(-c4cccc(C(=O)O)c4C)o3)C2=O)c1 [NB209] | > 100 µM | 113 ± 14.8 µM | > 100 µM | > 100 µM | – | – | – |
| O=C(O)c1cccc(-c2ccc(/C=C3\SC(=O)N(c4ccc(Cl)cc4)C3=O)o2)c1 [NB160] | > 100 µM | – | > 100 µM | > 100 µM | – | > 376 µM | – |
| Cc1cccc(NC(=O)CN2C(=O)S/C(=C\c3ccc(-c4ccc(Cl)c(C(=O)O)c4)o3)C2=O)c1 [NB207] | > 100 µM | > 464 µM | > 100 µM | > 100 µM | – | – | – |
| O=C1NC(=S)S/C1=C\c1ccc(-c2ccc(Cl)c(C(=O)O)c2)o1 [NB185] | 50.3 ± 4.09 µM | > 437 µM | 76.9 ± 3.52 µM | > 100 µM | >5.68 | – | – |
| O=C1NC(=S)S/C1=C\c1ccc(-c2cccc(C(=O)O)c2)o1 [NB184] | > 100 µM | > 483 µM | > 100 µM | > 100 µM | >28.93 | – | – |

| SMILES | EC50 [1] | CC50 [2] | EC50 [3] | EC50 [4] | SI (CC50/EC50) [3] | CC50 [2, 5] | SI (CC50/EC50) ([3]; selectivity index) |
| --- | --- | --- | --- | --- | --- | --- | --- |
| Cc1c(C(=O)O)cccc1-c1ccc(/C=C2\SC(=O)N(CC(=O)Nc3ccccc3F)C2=O)o1 [NB195] | > 100 µM | – | > 100 µM | > 100 µM | – | 154 ± 6.93 µM | – |
| CCOC(=O)CN1C(=O)S/C(=C\c2ccc(-c3ccc(Cl)c(C(=O)O)c3)o2)C1=O [NB204] | > 100 µM | > 366 µM | > 100 µM | > 100 µM | – | – | – |
| Cc1ccc(C(=O)O)cc1-c1ccc(/C=C2\SC(=S)NC2=O)o1 [NB188] | > 100 µM | 197 ± 13 µM | > 100 µM | > 100 µM | – | – | – |
| COCCN1C(=O)/C(=C/c2ccc(-c3ccc(Cl)c(C(=O)O)c3)o2)SC1=S [NB201] | > 100 µM | 118 ± 8.54 µM | 10.7 ± 3.09 µM | 33.2 ± 0.566 µM | 11.08 | – | – |
| COc1ccc(N2C(=O)/C(=C/c3ccc(-c4cccc(C(=O)O)c4)o3)SC2=S)cc1 [NB156] | 3.16 ± 1.35 µM | – | 0.779 ± 0.092 µM | 2.66 µM | – | > 399 µM | >470.59 |
| Cc1cccc(N2C(=O)/C(=C/c3ccc(-c4cccc(C(=O)O)c4)o3)SC2=S)c1 [NB150] | 0.403 ± 0.119 µM | – | 0.308 ± 0.047 µM | 0.56 ± 0.05 µM | – | 38.7 ± 5.85 µM | 125.69 |
| O=C(O)CN1C(=O)/C(=C/c2ccc(-c3cc(C(=O)O)ccc3Cl)o2)SC1=S [NB235] | > 100 µM | > 378 µM | > 100 µM | > 100 µM | – | – | – |
| C#CCN1C(=O)S/C(=C\c2ccc(-c3cc(C(=O)O)ccc3Cl)o2)C1=O [NB203] | > 100 µM | > 413 µM | > 100 µM | > 100 µM | – | – | – |
| O=C(O)c1cccc(-c2ccc(/C=C3\SC(=S)N(Cc4ccccc4)C3=O)o2)c1 [NB182] | 2.25 ± 1.14 µM | – | 0.83 ± 0.024 µM | 1.68 ± 0.142 µM | – | – | – |
| O=C(O)c1cc(-c2ccc(/C=C3\SC(=S)N(Cc4ccccc4)C3=O)o2)ccc1Cl [NB217] | 2.37 ± 0.657 µM | – | 0.767 ± 0.219 µM | 2.3 ± 0.131 µM | – | – | – |
| COC(=O)c1ccccc1N1C(=O)/C(=C/c2ccc(-c3ccc(Cl)c(C(=O)O)c3)o2)SC1=S [NB226] | 3.46 ± 0.2 µM | > 320 µM | 2.12 ± 0.38 µM | > 100 µM | – | – | – |
| C=CCN1C(=O)/C(=C/c2ccc(-c3cc(C(=O)O)cc(C(=O)O)c3)o2)SC1=S [NB225] | > 100 µM | > 386 µM | > 100 µM | – | – | – | – |
| O=C(O)c1cccc(-c2ccc(/C=C3\SC(=S)N(Cc4ccco4)C3=O)o2)c1 [NB238] | – | – | – | – | >14.57 | – | – |
| O=C(O)c1cc(-c2ccc(/C=C3\SC(=O)N(Cc4ccccc4)C3=O)o2)ccc1Cl [NB192] | > 100 µM | – | > 100 µM | > 100 µM | – | – | – |
| COc1ccccc1N1C(=O)/C(=C/c2ccc(-c3cccc(C(=O)O)c3)o2)SC1=S [NB148] | – | > 368 µM | 2.65 µM | 34.9 µM | >266.67 | – | – |
